Test results published in ChEMBL document CHEMBL1201862, “PubChem BioAssay data set” (2004).
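Interpolation was linear, between the two tested concentrations surrounding the appropriate level; five concentrations were tested over 48 hours in 96-well plates. GI50: concentration for 50% inhibition of growth.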 Activity calls are given as the source filed them. Cut-off read from the data, not from the text of the source: active = GI50 up to about 1.1 µM and inactive = higher.

How the values were obtained:
Assay in all cases: NCI anticancer screen, dose series, 48 h
SK-OV-3 = system: SK-OV-3
KM12 = system: KM12
SF-295 = system: SF-295
ACHN = system: ACHN
MDA-MB-435 = system: MDA-MB-435
HOP-62 = system: HOP-62
SF-539 = system: SF-539
HCC 2998 = system: HCC 2998
NCI-H226 = system: NCI-H226
MCF7 = system: MCF7
UO-31 = system: UO-31
T47D = system: T47D
UACC-257 = system: UACC-257
SNB-75 = system: SNB-75
PC-3 = system: PC-3
SR = system: SR
OVCAR-5 = system: OVCAR-5
A549 = system: A549
CCRF-CEM = system: CCRF-CEM
HOP-92 = system: HOP-92

SMILES | GI50 (SK-OV-3) | GI50 (KM12) | GI50 (SF-295) | GI50 (ACHN) | GI50 (MDA-MB-435) | GI50 (HOP-62) | GI50 (SF-539) | GI50 (HCC 2998) | GI50 (NCI-H226) | GI50 (MCF7) | GI50 (UO-31) | GI50 (T47D) | GI50 (UACC-257) | GI50 (SNB-75) | GI50 (PC-3) | GI50 (SR) | GI50 (OVCAR-5) | GI50 (A549) | GI50 (CCRF-CEM) | GI50 (HOP-92)
Cc1ccc(S(=O)(=O)N(CCNC(=O)c2cccc(O)c2O)c2cc3c4c(c2)Oc2cccc5c2C4(C)c2c(cccc2O3)O5)cc1 | 57.1 µM (inactive) | > 100 µM (inactive) | > 100 µM (inactive) | > 100 µM (inactive) | 5.85 µM (inactive) | 55.6 µM (inactive) | 73.3 µM (inactive) | > 100 µM (inactive) | 7.74 µM (inactive) | 29.9 µM (inactive) | > 100 µM (inactive) | 6.17 µM (inactive) | > 100 µM (inactive) | 10.9 µM (inactive) | 36 µM (inactive) | 14.6 µM (inactive) | 64.7 µM (inactive) | 20.9 µM (inactive) | – | –
CC(=O)N(CN1C(=O)CCC1C(=O)O)c1ccccc1Cl (centres undefined) | > 100 µM (inactive) | > 100 µM (inactive) | > 100 µM (inactive) | > 100 µM (inactive) | > 100 µM (inactive) | > 100 µM (inactive) | > 100 µM (inactive) | > 100 µM (inactive) | > 100 µM (inactive) | > 100 µM (inactive) | > 100 µM (inactive) | > 100 µM (inactive) | > 100 µM (inactive) | > 100 µM (inactive) | > 100 µM (inactive) | – | > 100 µM (inactive) | > 100 µM (inactive) | > 100 µM (inactive) | > 100 µM (inactive)
O=C(O)c1cscc1Cc1cccs1 | > 100 µM (inactive) | > 100 µM (inactive) | > 100 µM (inactive) | > 100 µM (inactive) | > 100 µM (inactive) | > 100 µM (inactive) | > 100 µM (inactive) | – | 23.5 µM (inactive) | > 100 µM (inactive) | – | > 100 µM (inactive) | > 100 µM (inactive) | 57.8 µM (inactive) | > 100 µM (inactive) | > 100 µM (inactive) | > 100 µM (inactive) | > 100 µM (inactive) | > 100 µM (inactive) | > 100 µM (inactive)
Cc1ccc(C[N+](C)(C)N)cc1C | > 10 µM (inactive) | > 10 µM (inactive) | > 10 µM (inactive) | > 10 µM (inactive) | > 10 µM (inactive) | > 10 µM (inactive) | > 10 µM (inactive) | > 10 µM (inactive) | > 10 µM (inactive) | > 10 µM (inactive) | > 10 µM (inactive) | > 10 µM (inactive) | > 10 µM (inactive) | > 10 µM (inactive) | > 10 µM (inactive) | – | > 10 µM (inactive) | > 10 µM (inactive) | > 10 µM (inactive) | > 10 µM (inactive)
O=C1/C(=C/c2n[nH]cc2-c2ccc(Cl)cc2)C(=O)N(c2ccccc2)C1c1ccccc1 (centres undefined) | 15.5 µM (inactive) | 20.9 µM (inactive) | 18.4 µM (inactive) | 20.1 µM (inactive) | 14.9 µM (inactive) | 17.4 µM (inactive) | 22.3 µM (inactive) | – | 24.2 µM (inactive) | 25.9 µM (inactive) | 18.9 µM (inactive) | 1.69 µM (inactive) | 19.7 µM (inactive) | – | 6.92 µM (inactive) | 11.8 µM (inactive) | – | 25 µM (inactive) | 17.6 µM (inactive) | 23.4 µM (inactive)
Oc1c(CN2CCOCC2)ccc(CN2CCOCC2)c1O | 54 µM (inactive) | 75.7 µM (inactive) | 26 µM (inactive) | 30.9 µM (inactive) | 81.7 µM (inactive) | 42.3 µM (inactive) | 25.7 µM (inactive) | – | 28.4 µM (inactive) | 35.2 µM (inactive) | 18 µM (inactive) | 39.7 µM (inactive) | 27.2 µM (inactive) | 15.1 µM (inactive) | 48 µM (inactive) | 24.5 µM (inactive) | 57 µM (inactive) | 39.4 µM (inactive) | 3.62 µM (inactive) | > 100 µM (inactive)
CC(C)(C)c1ccc(O)c(CN(Cc2cc(C(C)(C)C)ccc2O)c2ccccc2)c1 | 29.4 µM (inactive) | 22.2 µM (inactive) | 17.5 µM (inactive) | 16.6 µM (inactive) | 16.2 µM (inactive) | 20.8 µM (inactive) | 17.6 µM (inactive) | – | – | 18.8 µM (inactive) | 14.4 µM (inactive) | 15.8 µM (inactive) | 2.48 µM (inactive) | 18.7 µM (inactive) | 17.9 µM (inactive) | 16 µM (inactive) | 16.1 µM (inactive) | 17.5 µM (inactive) | 32.4 µM (inactive) | 16.2 µM (inactive)
NC12c3c4cccc3Oc3cccc(c31)Oc1cccc(c12)O4 | > 50 µM (inactive) | > 50 µM (inactive) | > 50 µM (inactive) | > 50 µM (inactive) | > 50 µM (inactive) | > 50 µM (inactive) | > 50 µM (inactive) | – | > 50 µM (inactive) | > 50 µM (inactive) | > 50 µM (inactive) | > 50 µM (inactive) | > 50 µM (inactive) | > 50 µM (inactive) | > 50 µM (inactive) | > 50 µM (inactive) | > 50 µM (inactive) | > 50 µM (inactive) | > 50 µM (inactive) | > 50 µM (inactive)
OCCCNCc1ccncc1 | > 100 µM (inactive) | > 100 µM (inactive) | > 100 µM (inactive) | > 100 µM (inactive) | > 100 µM (inactive) | > 100 µM (inactive) | > 100 µM (inactive) | – | > 100 µM (inactive) | > 100 µM (inactive) | > 100 µM (inactive) | > 100 µM (inactive) | – | > 100 µM (inactive) | > 100 µM (inactive) | > 100 µM (inactive) | > 100 µM (inactive) | > 100 µM (inactive) | > 100 µM (inactive) | > 100 µM (inactive)
CCCCCCCCCCOC1C(C(C)OCCCN(C)C)OC2OC3(CCCCC3)OC21 (centres undefined) | 18.5 µM (inactive) | – | 17.5 µM (inactive) | 17.1 µM (inactive) | 16.2 µM (inactive) | 16.4 µM (inactive) | – | 13.3 µM (inactive) | 17.2 µM (inactive) | 26.2 µM (inactive) | 17.9 µM (inactive) | 18.1 µM (inactive) | 20.8 µM (inactive) | 5.48 µM (inactive) | 12.4 µM (inactive) | – | 11.7 µM (inactive) | 15.4 µM (inactive) | 10.7 µM (inactive) | 3.4 µM (inactive)
Cc1ccc(/C=N/n2c(=O)[nH]c3ccccc3c2=O)cc1 | > 100 µM (inactive) | > 100 µM (inactive) | > 100 µM (inactive) | > 100 µM (inactive) | > 100 µM (inactive) | > 100 µM (inactive) | > 100 µM (inactive) | – | > 100 µM (inactive) | > 100 µM (inactive) | > 100 µM (inactive) | > 100 µM (inactive) | > 100 µM (inactive) | – | > 100 µM (inactive) | > 100 µM (inactive) | > 100 µM (inactive) | > 100 µM (inactive) | > 100 µM (inactive) | > 100 µM (inactive)
CC1=C(CCC(C)CO)O[C@H]2C[C@H]3[C@@H]4CC[C@H]5C[C@@H](O)CC[C@]5(C)[C@H]4CC(=O)[C@]3(C)[C@@H]12 (some centres undefined) | 0.442 µM (active) | 11.3 µM (inactive) | 1.27 µM (inactive) | 17.5 µM (inactive) | 18.9 µM (inactive) | 9.27 µM (inactive) | 19.2 µM (inactive) | – | 27.2 µM (inactive) | 23.6 µM (inactive) | 12.4 µM (inactive) | 7.03 µM (inactive) | 14.8 µM (inactive) | 20.6 µM (inactive) | 5.08 µM (inactive) | 13.4 µM (inactive) | 27.4 µM (inactive) | 13.8 µM (inactive) | 4.89 µM (inactive) | 23.9 µM (inactive)
CCN1C[C@]2(C)CC[C@H](OC)C34C5C[C@@H]6[C@@H](OC)C[C@@](OC)(C5[C@H]6OCc5ccccc5)C(C13)[C@H](OC(C)=O)[C@@H]42 (some centres undefined) | > 100 µM (inactive) | > 100 µM (inactive) | > 100 µM (inactive) | > 100 µM (inactive) | > 100 µM (inactive) | > 100 µM (inactive) | > 100 µM (inactive) | – | > 100 µM (inactive) | > 100 µM (inactive) | > 100 µM (inactive) | > 100 µM (inactive) | 45.8 µM (inactive) | 1.18 µM (inactive) | 82.8 µM (inactive) | > 100 µM (inactive) | > 100 µM (inactive) | > 100 µM (inactive) | > 100 µM (inactive) | 38.6 µM (inactive)
NC(=S)Nc1nc(=S)[nH]c2c1SC1=N/C(=C\c3ccco3)C(=O)N12 | > 100 µM (inactive) | 98.6 µM (inactive) | > 100 µM (inactive) | > 100 µM (inactive) | > 100 µM (inactive) | > 100 µM (inactive) | > 77.6 µM (inactive) | – | > 47.8 µM (inactive) | 29.1 µM (inactive) | > 100 µM (inactive) | 61.8 µM (inactive) | > 100 µM (inactive) | > 57.1 µM (inactive) | > 100 µM (inactive) | 21.1 µM (inactive) | > 100 µM (inactive) | > 100 µM (inactive) | 38.2 µM (inactive) | > 100 µM (inactive)
CC1OC(OC2C(O[C@H]3CC[C@@]4(C)C(=CC[C@H]5[C@@H]6C[C@@H]7O[C@]8(CC[C@@H](CO)CO8)[C@@H](C)[C@@H]7[C@@]6(C)CC[C@@H]54)C3)OC(CO)C(O)C2OC2OC(CO)C(O)C(O)C2O)C(O)C(O)C1O (some centres undefined) | 2.62 µM (inactive) | 1.91 µM (inactive) | – | 1.73 µM (inactive) | 2.01 µM (inactive) | 1.72 µM (inactive) | 1.6 µM (inactive) | 1.62 µM (inactive) | 1.97 µM (inactive) | 1.77 µM (inactive) | 2.52 µM (inactive) | 1.87 µM (inactive) | 1.77 µM (inactive) | 1.58 µM (inactive) | 1.9 µM (inactive) | – | 2.22 µM (inactive) | 2.07 µM (inactive) | – | 1.76 µM (inactive)
